According to PMC5503534, “Stable aneuploid tumors cells are more sensitive to TTK inhibition than chromosomally unstable cell lines” (Oncotarget, 2017):
Values joined by “and” are separate entries in the source; they are usually repeats but may differ in a detail not shown here. Equal values may be shown once. Read-outs that look alike come from different tables or passages of the source.

What was measured:
[1] = test system: post-tetraploid HPT2 cells; experiment: Cell proliferation assay, post-tetraploid HPT2; assay type: cell-based, human; details: HPT2, five days
Experimental: (§1) Cancer cell lines and hTERT-RPE1 retinal pigment epithelial cells were purchased from the American Type Culture Collection (ATCC) (Manassas, VA, U.S.A.) from 2011 to 2014 [41] and cultured in ATCC-recommended media. All experiments were carried out within nine passages of the original vials from ATCC who authenticated the cancer cell lines by short tandem repeat analysis. We verified the mutant status of seven frequently mutated cancer genes (i.e., BRAF, CDKN2A, CTNNB1, EGFR, KRAS, PIK3CA and TP53) by full exome or targeted sequencing. Sequencing results were compared to COSMIC version 75 of the Genomics of Drug Sensitivity in Cancer data base and provided additional authentication of the identity of the cell lines. The isolation and characterization of post-tetraploid clones from HCT 116 has been described previously. The mutation status of the CDKN2A, CTNNB1, KRAS and PIK3CA genes were confirmed by sequence analysis in both the HCT 116 parental cell line and post-tetraploid clones. All experiments were carried out within nine passages of the original cell stocks that were transferred from the Max Planck Institute of Biochemistry (Martinsried, Germany) to Netherlands Translational Research Center.
(§2) Cell proliferation assays were carried out as described using ATPlite 1step™ (Perkin Elmer, Groningen, The Netherlands). Exposure time was 72 or 120 hours as indicated in the Legends to the Figures. Percentage growth was calculated, relative to the growth of unexposed cells, and relative IC50s were fitted using a four-parameter logistics curve (XLfit 5.3, IDBS). For Figure 4A and 7 dose response curves were redrawn in Prism. To compare the inhibitory potency of compounds in proliferation assays with HCT 116 parental and tetraploid clones, pIC50 (−^10logIC50) values were compared in three independent experiments. A two-tailed Student's t-test was performed to determine whether differences in sensitivity (ΔpIC50) were statistically significant. Caspase 3/7 activity of cancer cells was measured using Caspase-Glo 3/7 Assay kit (cat no. G8093, Promega, Madison USA). Viability of T-ALL cell samples was determined using ATPlite and exposure of 72 hours as described previously.

[2] = test system: HCT 116 colon carcinoma cell line; experiment: Cell proliferation assay (ATPlite), HCT 116; assay type: cell-based, human
Experimental: as §2

[3] = test system: OVCAR-3 ovary adenocarcinoma cell line; details: three day cell proliferation assay; cited from earlier work
[4] = test system: LoVo colorectal adenocarcinoma cell line; details: three day cell proliferation assay; cited from earlier work
[5] = test system: MG-63 osteosarcoma cell line; experiment: Cell proliferation assay (ATPlite), MG-63; assay type: cell-based, human; details: 5 day proliferation assay
Experimental: as §2

[6] = test system: post-tetraploid HPT4 cells; experiment: Cell proliferation assay, post-tetraploid HPT4; assay type: cell-based, human; details: HPT4, five days
Experimental: as §1, §2

[7] = test system: HCT 116 parental cells or tetraploids; experiment: Colony formation assay; assay type: cell-based, human; details: pre-treated 4 days with 100 nM, reseeded
Experimental: After 4 days, the cells were washed with phosphate-buffered saline (PBS) and allowed to recover for 24 hours. The remaining cells were collected and plated at a density of 1000 cells per well in a 96-well plate. After ten days, cells were fixed with 96% methanol for 20 minutes, washed with PBS and stained with 0.1% (w/v) crystal violet over-night. Plates were washed in tap water and allowed to dry before scanning and analysis with ImageJ software (NIH, Bethesda, MD, USA).

[8] = test system: A-172 glioblastoma cell line; details: three day cell proliferation assay; cited from earlier work
[9] = test system: patient-derived colorectal carcinoma organoids; experiment: Organoids drug sensitivity and viability assay; assay type: cell-based, human
Experimental: The establishment and characterization of the human colon cancer organoids has been described. The organoids were cultured in drops of Geltrex LDEV-Free Reduced Growth Factor Basement Membrane Matrix (Gibco, cat no. A1413202) in DMEM/F12 medium (Thermo), supplemented with 1% (v/v) penicillin/streptomycin (Gibco), 1% Hepes buffer, pH7.5, 1% L-glutamine (Gibco), 1 μg/mL R-spondin (Sigma), 100 ng/mL Noggin (Peprotech), B27 vitamin A-free (Invitrogen, cat no. 12587010), 1 mM n-acetyl cysteine (Sigma), 10 mM nicotinamide (Sigma), 50 ng/mL EGF (BD Biosciences), 500 nM A83-01 (Tocris), 10 μM SB202190 (Sigma), 10 μM Y-27632 (Sigma) and 10 nM Prostaglandin E2 (Cayman). Medium was refreshed every four days and organoids were splitted by treatment with TryPLE Express (Gibco, cat. no. 12604013).
Organoids were dissociated by TryPLE Express treatment and filtered using a 40 μm nylon cell strainer (Falcon). The organoids were re-suspended in Geltrex at a density of 250,000 cells/mL and seeded in the wells of 96-well plates (Corning, cat no. 3903) at 10 μl per well. Compounds were added four days after plating and 72 hours later viability was determined using Cell-Titer Glo 3D Cell Viability Assay (Promega, Madison USA). Experiments were performed in three biological replicates and technical triplicates were averaged per experiment.

[10] = test system: caspase 3/7 in HCT 116, HPT1, HPT2 and HPT4 cells; experiment: Caspase 3/7 activity assay; assay type: cell-based, human; details: 316 nM, three days, parental line and HPT1, HPT2, HPT4
Experimental: as §2

[11] = test system: A-172 glioblastoma cell line; experiment: Cell proliferation assay (ATPlite), A-172; assay type: cell-based, human; details: 5 day proliferation assay
Experimental: as §2

[12] = geometric average of three experiments

**Q.** Which results are given for `CCc1cccc(CC)c1NC(=O)c1ccn2c1CCc1cnc(Nc3ccc(N4CCN(C)CC4)cc3OC)nc1-2` [NTRC 0066-0]?
**A.** Efficacy (%) ([1]; average of three experiments): 36%; IC50 [1, 12]: 44 nM; IC50 ([2]; 5 day proliferation assay, HCT 116 (Suppl. Table 1)): 41 nM; Eff. (%) ([2]; HCT 116, five days, maximum inhibitory effect, average of three experiments): 80%; IC50 ([2]; HCT 116 near-diploid, five days, geometric average of three experiments (Suppl. Table 2A)): 44 nM; IC50 [3]: 897 nM and 872 nM; IC50 [4]: 40 nM; IC50 [5]: 260 nM; Efficacy (%) ([6]; average of three experiments): 48%; IC50 [6, 12]: 44 nM; proliferation after compound wash-out (colony formation) [7]: unable to fully resume proliferation; IC50 [8]: 51 nM; ΔpIC50 ([9]; All organoids, NTRC 0066-0 vs reversine): 1.17; pIC50 ([9]; All organoids, geometric average): 7.59; ΔpIC50 ([9]; organoid p14, NTRC 0066-0 vs reversine): 1.34; pIC50 ([9]; organoid p14, three days): 7.65; IC50 ([9]; organoid p14, three days, read-out: IC50): 22.5 nM; pIC50 ([9]; organoid p18, three days): 7.68; IC50 ([9]; organoid p18, three days, read-out: IC50): 22.1 nM; ΔpIC50 ([9]; organoid p28, NTRC 0066-0 vs reversine): 1.22; pIC50 ([9]; organoid p28, three days): 7.43; IC50 ([9]; organoid p28, three days, read-out: IC50): 37 nM; times more potent than reversine ([9]; organoids): 10 times; IC50 ([9]; organoids from three different patients, read-out: average IC50): 27 nM; caspase 3/7 activity [10]: induced caspase 3/7 activity; IC50 [11]: 34 nM
